What was measured:
human 11β-HSD1 = human 11β-HSD1 (Homo sapiens, UniProt P28845); assay: scintillation proximity assay (SPA), microsomes of HEK-293 cells transfected with human 11β-HSD1; settings: for inhibition at 1 µM: read-out: Inhibitory ratio h-HSD1, at 1.0 μM, averages of three determinations
Method: (§1) With diverse tanshinones in hand, inhibition of human and mouse 11β-HSD1 enzymatic potency was measured by scintillation proximity assay (SPA) using microsomes containing 11β-HSD1 [46, 47]. Results are reported as the average of two or three independent experiments at each concentration.
(§2) The SPA was used to screen for inhibitors of 11β-HSDs [48], with the microsome fractions prepared from the HEK-293 cells stably transfected with either human or mouse 11β-HSD1 or 11β-HSD2 as the enzyme source. […] Reactions were initiated by the addition of 11β-HSD1 or 11β-HSD2, enzyme. […] The plates were incubated under plastic film on an orbital shaker for 120 min at room temperature before counting. The amount of [^3H]-cortisol generated in 11β-HSD1 enzyme reaction or remaining from the 11β-HSD2 enzyme reaction was captured by the beads and determined in a microplate liquid scintillation counter. The % inhibition was calculated relative to a non-inhibited control. Data were obtained from two or three independent experiments. IC50 values were calculated from concentration–response curves by a non-linear regression analysis using Prism Version 6.

mouse 11β-HSD1 = mouse 11β-HSD1 (Mus musculus, UniProt P50172); assay: scintillation proximity assay (SPA), microsomes of HEK-293 cells transfected with mouse 11β-HSD1; settings: for Mouse SI (selectivity index): Table 3, SI = IC50(HSD2)/IC50(HSD1); for inhibition at 1 µM: read-out: Inhibitory ratio m-HSD1, at 1.0 μM, averages of three determinations
Method: as §1, §2

mouse 11β-HSD2 = target: T1, mouse 11β-HSD2 (Mus musculus, UniProt P51661); assay: scintillation proximity assay (SPA), microsomes of HEK-293 cells transfected with mouse 11β-HSD2
T1 sequence (P51661 1-386): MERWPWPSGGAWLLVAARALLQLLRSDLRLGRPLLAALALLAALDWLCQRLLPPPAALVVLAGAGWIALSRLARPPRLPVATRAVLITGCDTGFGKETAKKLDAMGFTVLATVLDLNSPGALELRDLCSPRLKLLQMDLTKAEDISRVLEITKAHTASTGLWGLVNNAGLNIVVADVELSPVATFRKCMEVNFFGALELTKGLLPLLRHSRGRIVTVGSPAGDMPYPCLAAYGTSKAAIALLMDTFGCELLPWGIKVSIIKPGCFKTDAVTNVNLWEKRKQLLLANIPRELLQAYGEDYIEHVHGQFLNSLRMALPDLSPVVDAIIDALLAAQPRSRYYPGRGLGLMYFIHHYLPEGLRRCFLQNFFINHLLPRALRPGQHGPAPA
Method: as §1, §2

mouse 11β-HSD1, sequence (P50172 whole entry): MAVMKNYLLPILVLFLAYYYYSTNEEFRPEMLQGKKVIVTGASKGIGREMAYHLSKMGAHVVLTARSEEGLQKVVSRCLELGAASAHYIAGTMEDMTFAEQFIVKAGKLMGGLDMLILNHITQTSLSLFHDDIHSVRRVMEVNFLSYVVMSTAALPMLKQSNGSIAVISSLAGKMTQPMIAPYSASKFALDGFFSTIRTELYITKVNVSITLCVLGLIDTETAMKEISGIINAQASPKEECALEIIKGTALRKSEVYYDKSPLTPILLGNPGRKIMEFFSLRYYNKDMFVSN
human 11β-HSD1, sequence (P28845 whole entry): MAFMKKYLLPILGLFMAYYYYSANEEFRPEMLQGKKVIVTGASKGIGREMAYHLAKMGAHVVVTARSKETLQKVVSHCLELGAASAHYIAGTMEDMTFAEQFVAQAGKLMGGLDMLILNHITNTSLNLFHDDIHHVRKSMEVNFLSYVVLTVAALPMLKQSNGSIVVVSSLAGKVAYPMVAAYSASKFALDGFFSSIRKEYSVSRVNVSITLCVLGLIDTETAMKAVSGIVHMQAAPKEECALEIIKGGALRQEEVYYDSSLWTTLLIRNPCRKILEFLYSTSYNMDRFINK

| inhibition at 1 µM (human 11β-HSD1) [%] | IC50 (mouse 11β-HSD1) [nM] | Mouse SI (selectivity index) (mouse 11β-HSD1) | inhibition at 1 µM (mouse 11β-HSD1) [%] | IC50 (mouse 11β-HSD2) [nM] | IC50 (human 11β-HSD1) [nM] | Compound |
| --- | --- | --- | --- | --- | --- | --- |
| 31.1 ± 0.2 | 138 ± 10.8 | > 724.1 | 89 ± 3.5 | > 100000 |  | Cc1coc2c1C(=O)C(=O)c1c-2ccc2c1[C@H](O)[C@@H](O)CC2(C)C (racemic) [Compound 18a] |
| 14 ± 1.3 |  |  | 8.4 |  |  | Cc1coc2c1c(=O)oc1c3ccccc3ccc21 [Compound 9] |
| 9.9 ± 1.1 |  |  | 33 ± 2.3 |  |  | Cc1coc2c1C(=O)C(=O)C=C2 [Compound 11] |
| 10 ± 2.3 |  |  | 12.4 ± 1.4 |  |  | Cc1coc2ccc(O)cc12 [Compound 12] |
| 40.6 ± 1.5 | 72.9 ± 9.3 | > 1371.7 | 85.3 ± 0.2 | > 100000 |  | Cc1coc2c1C(=O)C(=O)c1c-2ccc2c1CCC(O)C2(C)C (stereo not drawn) [Compound 15] |
| 43.2 ± 1.7 |  |  | 49.4 ± 1.6 |  |  | Cc1coc2c1C(=O)C(=O)c1c-2ccc2c1C(=O)C(O)CC2(C)C (stereo not drawn) [Compound 18b] |
| 38.5 ± 2.2 | 96.6 ± 16.5 | > 103.6 | 81.8 ± 1.5 | > 10000 |  | Cc1coc2c1C(=O)C(=O)c1c-2ccc2c1C(=O)C(O)=CC2(C)C [Compound 20] |
| 5.1 ± 1.8 |  |  | 28.6 ± 0.3 |  |  | CC(=O)Oc1c2c(c3ccc4c(c3c1OC(C)=O)CCCC4(C)C)OC[C@@H]2C [Compound 21] |
| 33.6 ± 0.8 |  |  | 56 ± 2.2 |  |  | Cc1c[nH]c2c1C(=O)C(=O)c1c-2ccc2c1CCCC2(C)C [Compound 24] |
| 35.5 ± 2.8 | 95 ± 17.8 | > 105.3 | 85.1 ± 0.6 | > 10000 |  | C[C@@H](CO)C1=C(N)c2ccc3c(c2C(=O)C1=O)CCCC3(C)C [Compound 25] |
| 12.8 ± 0.8 |  |  | 19.2 ± 5.3 |  |  | Cc1coc2c3ccc4c(c3c3[nH]c(-c5ccc(O)cc5)nc3c12)CCCC4(C)C [Compound 26] |
| 33.9 ± 1.8 |  |  | 25.9 ± 0.3 |  |  | Cc1c(-c2ccccc2)oc2c1C(=O)C(=O)c1c-2ccc2c1CCCC2(C)C [Compound 27a] |
| 3.8 ± 1.5 |  |  | 5.6 ± 0.5 |  |  | Cc1c(-c2ccc(F)cc2)oc2c1C(=O)C(=O)c1c-2ccc2c1CCCC2(C)C [Compound 27b] |
| 14.5 ± 1.4 |  |  | 37.4 ± 2.8 |  |  | Cc1c(-c2ccsc2)oc2c1C(=O)C(=O)c1c-2ccc2c1CCCC2(C)C [Compound 27d] |
| 15.1 ± 0.8 |  |  | 42.9 ± 3.7 |  |  | Cc1c(-c2ccnc3ccccc23)oc2c1C(=O)C(=O)c1c-2ccc2c1CCCC2(C)C [Compound 27e] |
| 45.2 ± 0.7 |  |  | 6.7 ± 4.3 |  |  | Cc1c(CN2CCOCC2)oc2c1C(=O)C(=O)c1c-2ccc2c1CCCC2(C)C [Compound 29c] |
| 32.6 ± 5.8 | 56.6 ± 0.7 | > 176.4 | 88.9 ± 3.5 | > 10000 | > 1000 | CC1(C)CCCc2c1ccc1c2C(=O)C(=O)c2c(CNc3ccccc3)coc2-1 [Compound 31a] |
| 16.9 ± 3.7 |  |  | 37 ± 3.2 |  |  | CC1(C)CCCc2c1ccc1c2C(=O)C(=O)c2c(CN3CCOCC3)coc2-1 [Compound 31b] |
| 21.4 ± 1.8 | 328 ± 20.2 | > 30.5 | 70.1 ± 1.1 | > 10000 | > 1000 | CC1(C)CCCc2c1ccc1c2C(=O)C(=O)c2c-1oc(Cl)c2CO [Compound 32] |
| 48.9 ± 1.9 | 21.9 ± 7.9 | > 4575.5 | 83.6 ± 1.9 | > 100000 |  | CC(=O)OC1CCc2c(ccc3c2C(=O)C(=O)c2c(CO)coc2-3)C1(C)C (stereo not drawn) [Compound 35] |

Reference: article PMC9492458, “Development and structure–activity relationships of tanshinones as selective 11β-hydroxysteroid dehydrogenase 1 inhibitors” (Natural Products and Bioprospecting, 2022)
